The target of one assay is Cbl-b (Homo sapiens (Human), UniProt Q13191). In words: Cbl-b LCK Ub TR-FRET assay (Cbl-b Lck HTRF). In kind it is biochemical. The procedure:
Compounds were 3-fold serially diluted in DMSO in a 384-well polypropylene plate (#P-05525-BC; Labcyte) to generate a source plate with 10 concentrations of each compound, top concentration=2 mM. 80 nL of DMSO or compounds were transferred to each well of a black 384-well ProxiPlate (#6008260; PerkinElmer) using a Labcyte Echo. 1×assay buffer (50 mM HEPES pH7.0, 100 mM NaCl, 0.01% BSA, 0.01% Triton-X100, 1 mM DTT), 2×enzyme solution (16 nM Biotin-Cbl-b or 12 nM Biotin-c-Cbl in 1× assay buffer), 2×kinase mixture (120 nM His-LCK, 1 mM ATP, 10 mM MgCl2 in assay buffer) and 2.33×detection mixture (4.66×solution 1: 163 nM Anti-HA-D2 antibody (#610HADAB; PerkinElmer), 27.96 nM Streptavidin-EU (#AD0062; PerkinElmer), 1.398 mM EDTA in 1×assay buffer+4.66×solution 2: 2.796 μM UBE2D2/Methylated-HA-Ubiquitin thioester adduct (BostonBiochem) in 1×assay buffer) were prepared. 4 μL of 2× enzyme solution was added to each well containing compound, briefly centrifuged to mix, and incubated for 60 min at room temperature. 4 μL of 2× kinase mixture was added, briefly centrifuged to mix, and incubated for 90 min. at room temperature. 6 μL of detection mixture was added to all wells and briefly centrifuged before incubating for 20 min at room temperature. Plates were read for TR-FRET using an Envision at excitation 340 nm, emission at 615 and 665 nm, 4 flashes per well. IC50 was generated using no LCK as the low control and DMSO as the high control.
Cbl-b Lck HTRF data in Table 7 is measured according to Example 76 herein; C-cbl Lck HTRF data is measured according to Example 76 herein.
For orientation: In TR-FRET formats the signal depends on donor and acceptor labels being close together.

In a further assay the target is c-Cbl (Homo sapiens (Human), UniProt P22681). In words: C-Cbl LCK Ub TR-FRET assay (c-cbl Lck HTRF). In kind it is biochemical. Particulars: for (fold-selectivity): C-cbl Lck HTRF IC50 relative to Cbl-b Lck HTRF IC50. The procedure: 6 μL of detection mixture was added to all wells and briefly centrifuged before incubating for 20 min at room temperature. […] IC50 was generated using no LCK as the low control and DMSO as the high control.
Sequence of c-Cbl (P22681 47-435): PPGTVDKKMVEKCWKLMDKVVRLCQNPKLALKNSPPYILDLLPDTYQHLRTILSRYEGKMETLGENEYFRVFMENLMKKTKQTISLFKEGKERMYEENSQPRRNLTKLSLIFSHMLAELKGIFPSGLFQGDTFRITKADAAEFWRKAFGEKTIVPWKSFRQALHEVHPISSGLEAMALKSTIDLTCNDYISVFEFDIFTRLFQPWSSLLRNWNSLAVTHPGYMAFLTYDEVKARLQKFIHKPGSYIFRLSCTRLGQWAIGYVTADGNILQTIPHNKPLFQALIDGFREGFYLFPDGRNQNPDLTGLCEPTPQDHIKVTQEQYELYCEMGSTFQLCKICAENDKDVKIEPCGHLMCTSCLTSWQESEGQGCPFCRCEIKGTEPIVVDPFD

Sequence of Cbl-b (Q13191 40-426): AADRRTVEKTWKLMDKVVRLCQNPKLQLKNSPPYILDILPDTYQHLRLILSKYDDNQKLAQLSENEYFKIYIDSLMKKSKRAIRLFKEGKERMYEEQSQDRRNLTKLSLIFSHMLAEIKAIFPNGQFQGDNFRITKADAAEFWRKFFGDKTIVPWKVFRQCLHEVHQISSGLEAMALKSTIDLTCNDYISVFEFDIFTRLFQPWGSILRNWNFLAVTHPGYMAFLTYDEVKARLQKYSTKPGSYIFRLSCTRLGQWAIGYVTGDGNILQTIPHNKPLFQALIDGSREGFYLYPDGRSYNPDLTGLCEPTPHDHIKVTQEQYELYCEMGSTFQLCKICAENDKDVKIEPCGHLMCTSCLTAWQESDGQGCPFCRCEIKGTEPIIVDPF

Regarding `Cn1cnnc1[C@H](F)C1(c2cccc(N3Cc4c(cc(CN5CCC[C@@H](CO)C5)cc4C(F)(F)F)C3=O)c2)COC1` [Compound 151, 2-(3-(3-((R)-fluoro(4-methyl-4H-1,2,4-triazol-3-yl)methyl)oxetan-3-yl)phenyl)-6-(((R)-3-(hydroxymethyl)piperidin-1-yl)methyl)-4-(trifluoromethyl)isoindolin-1-one], 61 nM corresponded to half-maximal inhibition at Cbl-b (IC50). For the same compound, on c-Cbl, 85 nM corresponded to half-maximal inhibition (IC50) and the “(fold-selectivity)” value is on record as 1.4x.

As to `CC(C)[C@H]1CN(C)CCN1Cc1cc2c(c(C(F)(F)F)c1)CN(c1cccc(C3(Cc4nncn4C(F)F)COC3)c1)C2=O` [Compound 266, (S)-2-(3-(3-((4-(difluoromethyl)-4H-1,2,4-triazol-3-yl)methyl)-oxetan-3-yl)phenyl)-6-((2-isopropyl-4-methylpiperazin-1-yl)methyl)-4-(trifluoromethyl)-isoindolin-1-one], at Cbl-b, it took 13 nM to reach half-maximal inhibition (IC50). At c-Cbl, 9.7 nM corresponded to half-maximal inhibition (IC50) and the “(fold-selectivity)” value is “(0.76x)”.

As to `C[C@@H]1CN(Cc2cc3c(c(C(F)(F)F)c2)CN(c2cccc(C4(Cc5nncn5C)CC(F)(F)C4)c2)C3=O)CCN1C` [Compound 220, (R)-2-(3-(3,3-difluoro-1-((4-methyl-4H-1,2,4-triazol-3-yl)methyl)cyclobutyl)phenyl)-6-((3,4-dimethylpiperazin-1-yl)methyl)-4-(trifluoromethyl)isoindolin-1-one], at Cbl-b, the IC50 (in general, the concentration needed to halve the response being measured) amounted to 34 nM. Further, at c-Cbl, the IC50 was 35 nM and the “(fold-selectivity)” value was determined as 1.0x.

Take `Cn1cnnc1CC1(c2cc(NCCC(F)(F)F)nc(N3Cc4c(cccc4C(F)(F)F)C3=O)c2)COC1` [Compound 488, 2-(4-(3-((4-methyl-4H-1,2,4-triazol-3-yl)methyl)oxetan-3-yl)-6-((3,3,3-trifluoropropyl)amino)pyridin-2-yl)-4-(trifluoromethyl)isoindolin-1-one]: it took 1900 nM to reach half-maximal inhibition on Cbl-b (IC50). In addition, at c-Cbl, the IC50 is 12500 nM and the “(fold-selectivity)” value is listed as “(6.4x)”.

At Cbl-b, `CCCNCc1cc2c(c(C(F)(F)F)c1)CN(c1cccc(C3([C@H](F)c4nncn4C)CC(F)(F)C3)c1)C2=O` [Compound 446, (S)-2-(3-(3,3-difluoro-1-(fluoro(4-methyl-4H-1,2,4-triazol-3-yl)methyl)cyclobutyl)phenyl)-6-((propylamino)methyl)-4-(trifluoromethyl)isoindolin-1-one] gave an IC50 of 26 nM. For the same compound, at c-Cbl, the IC50 was determined as 29 nM and the “(fold-selectivity)” value is given as “(1.3x)”.

For the compound `CCn1cnnc1[C@H](F)C1(c2cccc(N3Cc4c(cccc4C(F)(F)F)C3=O)c2)COC1` [Compound 272, (R)-2-(3-(3-((4-ethyl-4H-1,2,4-triazol-3-yl)fluoromethyl)oxetan-3-yl)phenyl)-4-(trifluoromethyl)isoindolin-1-one], the half-maximal inhibitory concentration (IC50) against Cbl-b was 8200 nM. At c-Cbl, the IC50 was determined as 11000 nM and the “(fold-selectivity)” value is “(1.3x)”.

As to `CC(C)NCc1cc2c(c(C(F)(F)F)c1)CN(c1cccc(C3([C@@H](F)c4nncn4C)CC(F)(F)C3)c1)C2=O` [Compound 417, (R)-2-(3-(3,3-difluoro-1-(fluoro(4-methyl-4H-1,2,4-triazol-3-yl)methyl)cyclobutyl)phenyl)-6-((isopropylamino)methyl)-4-(trifluoromethyl)isoindolin-1-one], the IC50 came out at 57 nM against Cbl-b and 52 nM against c-Cbl. The “(fold-selectivity)” value on c-Cbl is “(0.93x)”.

`Cn1cnnc1[C@@H](F)C1(c2cccc(N3Cc4c(cc(CN5CC6(C5)CC6(F)F)cc4C(F)(F)F)C3=O)c2)COC1` [Compound 154, (S)-6-((1,1-difluoro-5-azaspiro[2.3]hexan-5-yl)methyl)-2-(3-(3-(fluoro(4-methyl-4H-1,2,4-triazol-3-yl)methyl)oxetan-3-yl)phenyl)-4-(trifluoromethyl)isoindolin-1-one] returned an IC50 against Cbl-b of 72 nM. For the same compound, at c-Cbl, inhibition was half-maximal at 230 nM (IC50) and the “(fold-selectivity)” value is 3.2x.

As for `CC(C)NCc1cc2c(c(C(F)(F)F)c1)CN(c1cccc(C3(Cc4nncn4C)CC(F)(F)C3)c1)C2=O` [Compound 415, 2-(3-(3,3-difluoro-1-((4-methyl-4H-1,2,4-triazol-3-yl)methyl)cyclobutyl)phenyl)-6-((isopropylamino)methyl)-4-(trifluoromethyl)isoindolin-1-one], the IC50 against Cbl-b came to 16 nM. Also, at c-Cbl, half-maximal inhibition (IC50) was put at 14 nM and the “(fold-selectivity)” value is recorded as “(0.91x)”.

On to `Cn1cnnc1[C@@H](F)C1(c2cccc(N3Cc4c(cc(CN5CC[C@H](F)C5)cc4C(F)(F)F)C3=O)c2)COC1` [Compound 83, 2-(3-(3-((S)-fluoro(4-methyl-4H-1,2,4-triazol-3-yl)methyl)oxetan-3-yl)phenyl)-6-(((S)-3-fluoropyrrolidin-1-yl)methyl)-4-(trifluoromethyl)isoindolin-1-one], for which the IC50 at Cbl-b is 210 nM. For the same compound, on c-Cbl, the IC50 was found to be 640 nM and the “(fold-selectivity)” value was determined as 3.1x.

With `C[C@H]1CN(Cc2cc3c(c(C(F)(F)F)c2)CN(c2cccc(C4(Cc5nncn5C)CC(F)(F)C4)c2)C3=O)CCN1` [Compound 425, (S)-2-(3-(3,3-difluoro-1-((4-methyl-4H-1,2,4-triazol-3-yl)methyl)cyclobutyl)phenyl)-6-((3-methylpiperazin-1-yl)methyl)-4-(trifluoromethyl)isoindolin-1-one], the IC50 against Cbl-b is 32 nM. Also, at c-Cbl, it took 22 nM to reach half-maximal inhibition (IC50) and the “(fold-selectivity)” value is reported as “(0.68x)”.

Consider `COC[C@@H]1CCCN1Cc1cc2c(c(C(F)(F)F)c1)CN(c1cccc(C3([C@H](F)c4nncn4C)COC3)c1)C2=O` [Compound 160, 2-(3-(3-((S)-fluoro(4-methyl-4H-1,2,4-triazol-3-yl)methyl)oxetan-3-yl)phenyl)-6-(((S)-2-(methoxymethyl)pyrrolidin-1-yl)methyl)-4-(trifluoromethyl)isoindolin-1-one], for which the IC50 against Cbl-b amounted to 1400 nM; at c-Cbl it was 2300 nM. Also, the “(fold-selectivity)” value on c-Cbl is given as 1.7x.

Turning to `Cn1cnnc1[C@@H](F)C1(c2cccc(N3Cc4c(cc(CNC5(C)CCC5)cc4C(F)(F)F)C3=O)c2)CC(F)(F)C1` [Compound 465, (S)-2-(3-(3,3-difluoro-1-(fluoro(4-methyl-4H-1,2,4-triazol-3-yl)methyl)cyclobutyl)phenyl)-6-(((1-methylcyclobutyl)amino)methyl)-4-(trifluoromethyl)isoindolin-1-one], the IC50 worked out at 14 nM against Cbl-b and 13 nM against c-Cbl. Further, the “(fold-selectivity)” value on c-Cbl is recorded as “(0.90x)”.

As for `Cn1cnnc1C(F)(F)C1(c2cccc(N3Cc4c(cc(CNC5(C)CCC5)cc4C(F)(F)F)C3=O)c2)COC1` [Compound 287, 2-(3-(3-(difluoro(4-methyl-4H-1,2,4-triazol-3-yl)methyl)oxetan-3-yl)phenyl)-6-(((1-methylcyclobutyl)amino)methyl)-4-(trifluoromethyl)isoindolin-1-one], the IC50 against Cbl-b was found to be 32 nM. Besides, on c-Cbl, the IC50 came out at 43 nM and the “(fold-selectivity)” value is listed as “(1.4x)”.

As for `CC(C)[C@H]1CN(C2CC2)CCN1Cc1cc2c(c(C(F)(F)F)c1)CN(c1cccc(C3([C@@H](F)c4nncn4C)COC3)c1)C2=O` [Compound 405, 6-(((S)-4-cyclopropyl-2-isopropylpiperazin-1-yl)methyl)-2-(3-(3-((R)-fluoro(4-methyl-4H-1,2,4-triazol-3-yl)methyl)oxetan-3-yl)phenyl)-4-(trifluoromethyl)isoindolin-1-one], the IC50 against Cbl-b amounted to 18 nM; against c-Cbl, 16 nM. Moreover, the “(fold-selectivity)” value on c-Cbl is “(0.91x)”.

For `CC[C@H]1CCC[C@@H](c2cc3c(c(C(F)(F)F)c2)CN(c2cccc(C4(Cc5nncn5C)CC(F)(F)C4)c2)C3=O)N1` (single isomer, unassigned) [Compound 273], the IC50 against Cbl-b is 51 nM; on c-Cbl, 77 nM. Further, the “(fold-selectivity)” value at c-Cbl is listed as “(1.5x)”.

At Cbl-b, `CC(C)[C@H]1CN(C)CCN1Cc1cc2c(c(C(F)(F)F)c1)CN(c1cccc(C3([C@H](F)c4nc(F)cn4C)COC3)c1)C2=O` [Compound 270, 2-(3-(3-((S)-fluoro(4-fluoro-1-methyl-1H-imidazol-2-yl)methyl)oxetan-3-yl)phenyl)-6-(((S)-2-isopropyl-4-methylpiperazin-1-yl)methyl)-4-(trifluoromethyl)isoindolin-1-one] had an IC50 of 130 nM. For the same compound, at c-Cbl, the IC50 is 350 nM and the “(fold-selectivity)” value was “(2.6x)”.

In the case of `Cn1cnnc1[C@@H](F)C1(c2cccc(N3Cc4c(cc(CN5CC(CCO)C5)cc4C(F)(F)F)C3=O)c2)COC1` [Compound 178, (S)-2-(3-(3-(fluoro(4-methyl-4H-1,2,4-triazol-3-yl)methyl)oxetan-3-yl)phenyl)-6-((3-(2-hydroxyethyl)azetidin-1-yl)methyl)-4-(trifluoromethyl)isoindolin-1-one], the IC50 on Cbl-b worked out at 170 nM; against c-Cbl, 350 nM. For the same compound, the “(fold-selectivity)” value on c-Cbl stood at 2.0x.

The values are drawn from patent US20250230147A1, “LACTAMS AS CBL-B INHIBITORS” (Genentech, Inc., priority 2021, published 2025).
